In patent US8802678B2, “Carbonylated (aza) cyclohexanes as dopamine D3 receptor ligands” (Bioprojet, priority 2006, dated 2014):
Structures can show the parent of a compound that is named as a salt.

SMILES | melting point
N#CCC(=O)N[C@H]1CC[C@@H](CCN2CC=C(c3ccc(F)cc3)CC2)CC1 | 147 °C
N#Cc1cccc(C2=CCN(CC[C@H]3CC[C@H](NC(=O)CCC(F)(F)F)CC3)CC2)c1 | 177 °C
O=C(N[C@H]1CC[C@H](CCN2CCN(c3ccc(F)cc3F)CC2)CC1)C1=COCC1 [Example 527, 4,5-Dihydrofuran-3-carboxylic acid (4-{2-[4-(2,4-difluorophenyl)piperazin-1-yl]ethyl}cyclohexyl) amide] | 192 °C
CC(=O)CN1CCC(CCN2CCN(c3cccc(Cl)c3Cl)CC2)CC1 (as salt: hydrochloride) [Example 737, 1-(4-{2-[4-(2,3-Dichlorophenyl)piperazin-1-yl]ethyl}piperidin-1-yl)propan-2-one, dihydrochloride] | 281 °C
N#CCC(=O)N[C@H]1CC[C@H](CCN2CCN(c3ccc(F)c(Cl)c3F)CC2)CC1 [Example 551, N-(4-{2-[4-(3-Chloro-2,4-difluorophenyl)piperazin-1-yl]ethyl}cyclohexyl)-2-cyanoacetamide] | 198 °C
N#CCC(=O)N[C@H]1CC[C@H](CCN2CCN(c3cc(C#N)ccc3Cl)CC2)CC1 [Example 599, N-(4-{2-[4-(2-Chloro-5-cyanophenyl)piperazin-1-yl]ethyl}cyclohexyl)-2-cyanoacetamide] | 225 °C
N#Cc1cccc(N2CCN(CC[C@H]3CC[C@H](NC(=O)C4=COCC4)CC3)CC2)c1 [Example 524, 4,5-Dihydrofuran-3-carboxylic acid (4-{2-[4-(3-cyanophenyl)piperazin-1-yl]ethyl}cyclohexyl) amide] | 165 °C
CC(=O)CN1CCC(CCN2CCN(c3cccc(C(F)F)c3)CC2)CC1.Cl.Cl | 265 °C
N#CCC(=O)N[C@H]1CC[C@H](CCN2CCN(c3ccc(Cl)c(Cl)c3F)CC2)CC1 [Example 519, 2-Cyano-N-(4-{2-[4-(3,4-dichloro-2-fluorophenyl)piperazin-1-yl]ethyl}cyclohexyl)acetamide] | 237 °C
CC(=O)CN1CCC(CCN2CC=C(c3ccc(F)cc3)CC2)CC1 | 72 °C
O=C(N[C@H]1CC[C@H](CCN2CCN(c3cc(Cl)ccc3F)CC2)CC1)C1=CCCC1 [Example 525, Cyclopent-1-enecarboxylic acid (4-{2-[4-(5-chloro-2-fluorophenyl)piperazin-1-yl]ethyl}cyclohexyl) amide] | 198 °C
N#CCC(=O)N[C@H]1CC[C@H](CCN2CCN(c3cc(F)c(C(F)(F)F)c(F)c3)CC2)CC1 [Example 574, 2-Cyano-N-(4-{2-[4-(3,5-difluoro-4-trifluoromethylphenyl)piperazin-1-yl]ethyl}cyclohexyl) acetamide] | 231 °C
CC(=O)CN1CCC(CCN2CC=C(c3cccc(Cl)c3Cl)CC2)CC1.Cl.Cl | 296 to 297 °C
O=C(C[C@H]1CC[C@H](CCN2CCN(c3ccccc3F)CC2)CC1)N1CCCC1 [Example 302, 2-(4-{2-[4-(2-Fluorophenyl)-piperazin-1-yl]ethyl}cyclohexyl)-1-pyrrolidin-1-ylethanone] | 92 to 93 °C
CCc1ccccc1C1=CCN(CC[C@H]2CC[C@H](NC(=O)CC#N)CC2)CC1 | 158 °C
N#CCC(=O)N[C@H]1CC[C@H](CCN2CCN(c3c(F)c(F)c(F)c(F)c3F)CC2)CC1 [Example 753, 2-Cyano-N-{4-[2-(4-pentafluorophenylpiperazin-1-yl)ethyl]cyclohexyl}acetamide] | 202 °C
N#CCC(=O)N[C@H]1CC[C@H](CCN2CCN(c3cccc(C(F)(F)F)c3C#N)CC2)CC1 [Example 103, 2-Cyano-N-(4-{2-[4-(2-cyano-3-trifluoromethylphenyl)piperazin-1-yl]ethyl}cyclohexyl)acetamide] | 222 °C
COCCNC(=O)C[C@H]1CC[C@H](CCN2CCN(c3cccc(C(F)(F)F)c3)CC2)CC1.Cl | 143 °C
COCCCC(=O)N[C@H]1CC[C@H](CCN2CC=C(c3ccc(F)cc3)CC2)CC1 | 201 °C
N#CCC(=O)N[C@H]1CC[C@H](CCN2CC=C(c3ccc(Cl)cc3)CC2)CC1 | 220 °C
CC(=O)CN1CCC(CCN2CCN(c3ccccc3CC(C)C)CC2)CC1.Cl.Cl | 285 °C
CCOCC(=O)N1CCC(CCN2CCN(c3cccc4c3CCC4)CC2)CC1.Cl | 270 °C

Next, values leading:

melting point | SMILES
197 °C | COCCCC(=O)N[C@H]1CC[C@H](CCN2CCN(c3ccc(F)c(C#N)c3)CC2)CC1 [Example 661, N-(4-{2-[4-(3-Cyano-4-fluorophenyl)piperazin-1-yl]ethyl}cyclohexyl)-4-methoxybutanamide]
135 °C | CCc1ccccc1N1CCN(CC[C@H]2CC[C@H](NC(=O)CC(F)(F)F)CC2)CC1 [Example 422, N-(4-{2-[4-(2-Ethylphenyl)piperazin-1-yl]ethyl}cyclohexyl)-3,3,3-trifluoropropanamide]
192 °C | Cc1cc(C)cc(N2CCN(CC[C@H]3CC[C@H](NC(=O)CC#N)CC3)CC2)c1 [Example 148, 2-Cyano-N-(4-{2-[4-(3,5-dimethylphenyl)piperazin-1-yl]ethyl}cyclohexyl)acetamide]
122 °C | CCOCC(=O)N[C@H]1CC[C@H](CCN2CC=C(c3ccc(F)cc3)CC2)CC1
172 °C | Cc1ccc(N2CCN(CC[C@H]3CC[C@H](NC(=O)CCCC#N)CC3)CC2)cc1C [Example 505, 4-Cyano-N-(4-{2-[4-(3,4-dimethylphenyl)piperazin-1-yl]ethyl}cyclohexyl)butanamide]
164 °C | COCC(=O)N[C@H]1CC[C@H](CCN2CCN(c3cc(C(F)(F)F)cc(C(F)(F)F)c3)CC2)CC1 [Example 118, N-(4-{2-[4-(3,5-Bistrifluoro-methylphenyl)piperazin-1-yl]ethyl}cyclohexyl)-2-methoxyacetamide]
132 °C | CCOCC(=O)N[C@H]1CC[C@H](CCN2CCN(c3ccc(OC)cc3)CC2)CC1 [Example 572, 2-Ethoxy-N-(4-{2-[4-(4-methoxyphenyl)piperazin-1-yl]ethyl}cyclohexyl)acetamide]
119 °C | O=C(COc1ccc(F)cc1)N[C@H]1CC[C@H](CCN2CCN(c3cccc(C(F)(F)F)c3)CC2)CC1 [Example 224, 2-(4-Fluorophenoxy)-N-(4-{2-[4-(3-trifluoromethylphenyl)-piperazin-1-yl]ethyl}cyclohexyl)-acetamide]
211 °C | COCCCC(=O)N[C@H]1CC[C@H](CCN2CCN(c3ccc(F)c(C#N)c3F)CC2)CC1 [Example 692, N-(4-{2-[4-(3-Cyano-2,4-difluorophenyl)piperazin-1-yl]ethyl}cyclohexyl)-4-methoxybutanamide]
189 °C | N#CCCCC(=O)N[C@H]1CC[C@H](CCN2CCN(c3ccc4c(c3)OCO4)CC2)CC1 [Example 365, N-{4-[2-(4-Benzo[1,3]dioxol-5-ylpiperazin-1-yl)ethyl]cyclohexyl}-4-cyanobutanamide]
150 °C | N#CCCCC(=O)N[C@H]1CC[C@H](CCN2CCN(c3cccc(SC(F)(F)F)c3)CC2)CC1 [Example 363, 4-Cyano-N-(4-{2-[4-(3-trifluoromethylsulfanylphenyl)piperazin-1-yl]ethyl}cyclohexyl)butanamide]
170 °C | N#CCCCC(=O)N[C@H]1CC[C@H](CCN2CCN(c3cccc(F)c3)CC2)CC1 [Example 395, 4-Cyano-N-(4-{2-[4-(3-fluorophenyl)piperazin-1-yl]ethyl}cyclohexyl)butanamide]
199 °C | Cc1ccc(N2CCN(CC[C@H]3CC[C@H](NC(=O)CC(F)(F)F)CC3)CC2)cc1C [Example 509, N-(4-{2-[4-(3,4-Dimethylphenyl)piperazin-1-yl]ethyl}cyclohexyl)-3,3,3-trifluoropropanamide]
154 °C | COCC(=O)N[C@H]1CC[C@H](CCN2CCN(c3ccc(F)cc3F)CC2)CC1 [Example 48, N-(4-{2-[4-(2,4-Difluorophenyl)-piperazin-1-yl]ethyl}cyclohexyl)-2-methoxyacetamide]
171 to 173 °C | N#CCCCC(=O)N[C@H]1CC[C@H](CCN2CCN(c3cccc(Cl)c3)CC2)CC1 [Example 229, N-(4-{2-[4-(3-Chlorophenyl)-piperazin-1-yl]ethyl}cyclohexyl)-4-cyanobutanamide]
150 °C | CC(F)(F)c1cccc(N2CCN(CC[C@H]3CC[C@H](NC(=O)CC#N)CC3)CC2)c1 [Example 281, 2-Cyano-N-[4-(2-{4-[3-(1,1-difluoroethyl)phenyl]piperazin-1-yl}ethyl)cyclohexyl]acetamide trans/cis 90/10]
100 °C | COCC(=O)N[C@H]1CC[C@H](CCN2CCN(c3ccccc3Cl)CC2)CC1 [Example 129, N-(4-{2-[4-(2-Chlorophenyl)-piperazin-1-yl]ethyl}cyclohexyl)-2-methoxyacetamide]
132 °C | CCOCC(=O)N[C@H]1CC[C@H](CCN2CCN(c3cc(C)c(F)cc3Cl)CC2)CC1 [Example 579, N-(4-{2-[4-(2-Chloro-4-fluoro-5-methylphenyl)piperazin-1-yl]ethyl}cyclohexyl)-2-ethoxyacetamide]
150 °C | CC(C)(C)c1cccc(N2CCN(CC[C@H]3CC[C@H](NC(=O)CC#N)CC3)CC2)c1 [Example 169, N-(4-{2-[4-(3-tert-Butylphenyl)piperazin-1-yl]ethyl}cyclohexyl)-2-cyanoacetamide]
90 °C | CCOCC(=O)N[C@H]1CC[C@H](CCN2CCN(c3cccc(C#N)c3)CC2)CC1 [Example 78, N-(4-{2-[4-(3-Cyanophenyl)-piperazin-1-yl]ethyl}cyclohexyl)-2-ethoxyacetamide trans/cis 75/25]
146 °C | Cc1ccc(F)cc1N1CCN(CC[C@H]2CC[C@H](NC(=O)CCC#N)CC2)CC1 [Example 278, 3-Cyano-N-(4-{2-[4-(5-fluoro-2-methylphenyl)piperazin-1-yl]ethyl}cyclohexyl)propanamide]
128 °C | O=C(N[C@H]1CC[C@H](CCN2CCN(c3cccc(C(F)(F)F)c3)CC2)CC1)C(F)F [Example 44, 2,2-Difluoro-N-(4-{2-[4-(3-trifluoromethylphenyl)piperazin-1-yl]ethyl}cyclohexyl)acetamide]
